The values below come from patent US20170372030A9, “METHOD AND APPARATUS FOR COMPUTER MODELING OF THE INTERACTION BETWEEN AND AMONG CORTICAL AND SUBCORTICAL AREAS IN THE HUMAN BRAIN FOR THE PURPOSE OF PREDICTING THE EFFECT OF DRUGS IN PSYCHIATRIC AND COGNITIVE DISEASES” (priority 2005, published 2017).

One test addresses 5HT-Transporter (Homo sapiens, UniProt P31645). Conditions: read-out: Km of 5HT-Transporter; cited from earlier work.
Test [1] deals with receptors of the 5HT1 class. Conditions: read-out: high-affinity binding for serotonin; cited from earlier work.
Test [2] concerns fast Na+ channel, persistent Na+ channel, L-type Ca++ channel. Conditions: saturating dose of 5HT (1 μM); cited from earlier work.
A further test concerns 5HT1b/d autoreceptor. As to conditions: cited from earlier work; for decrease of free 5HT: maximal stimulation of 5HT1b/d autoreceptor.
Test [3] has as its target T1, D2-R (Homo sapiens, UniProt P14416). As to conditions: cited from earlier work.
Test [4] deals with T1, D2-R. The experiment in a line: Drug and tracer binding affinity and on/off rates at the D2-R (Table 1). As to conditions: calculated as kon × Kd.
Another test has as its target T2, 5HT2C receptor (Rattus norvegicus, UniProt P08909).
T2 construct: from tissue; host or cells: brain in vivo (microdialysis), value quoted from the literature
T2 sequence (P08909 33-460): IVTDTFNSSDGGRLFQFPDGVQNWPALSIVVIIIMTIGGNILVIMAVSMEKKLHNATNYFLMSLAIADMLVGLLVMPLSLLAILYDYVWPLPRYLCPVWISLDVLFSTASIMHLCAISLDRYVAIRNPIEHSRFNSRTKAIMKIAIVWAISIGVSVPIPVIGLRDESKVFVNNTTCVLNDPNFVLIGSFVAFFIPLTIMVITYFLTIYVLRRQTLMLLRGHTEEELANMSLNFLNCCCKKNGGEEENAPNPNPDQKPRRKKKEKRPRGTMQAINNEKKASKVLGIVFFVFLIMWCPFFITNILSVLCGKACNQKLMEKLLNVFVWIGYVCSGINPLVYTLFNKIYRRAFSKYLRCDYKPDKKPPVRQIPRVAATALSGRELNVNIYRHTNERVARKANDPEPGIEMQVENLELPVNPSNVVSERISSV
Conditions: microdialysis, maximal effect; cited from earlier work.

The target of test [5] is alpha 1-adrenoreceptor. As to conditions: nonspiking regions, human cortical membranes; read-out: affinity; cited from earlier work.
The target in test [6] is alpha 1-adrenoreceptor. Conditions: normal rat brain in vivo, cited from earlier work.
For the next test, the system named is α2 adrenergic receptors. As to conditions: full stimulation of α2 receptors; cited from earlier work.
A further test addresses α2-R. Conditions: read-out: Ki for NE at the α2-R; cited from earlier work.
In test [7] the test system is Norepinephrine Transporter (NET). Conditions: rat jejunum, cited from earlier work.
Another test has as its target T3, NET (Rattus norvegicus, UniProt Q63380).
T3 construct: from tissue
Conditions: blocking the NET; cited from earlier work.

Like-named read-outs stand apart in the source and are kept apart here.

T1 sequence (P14416 whole entry): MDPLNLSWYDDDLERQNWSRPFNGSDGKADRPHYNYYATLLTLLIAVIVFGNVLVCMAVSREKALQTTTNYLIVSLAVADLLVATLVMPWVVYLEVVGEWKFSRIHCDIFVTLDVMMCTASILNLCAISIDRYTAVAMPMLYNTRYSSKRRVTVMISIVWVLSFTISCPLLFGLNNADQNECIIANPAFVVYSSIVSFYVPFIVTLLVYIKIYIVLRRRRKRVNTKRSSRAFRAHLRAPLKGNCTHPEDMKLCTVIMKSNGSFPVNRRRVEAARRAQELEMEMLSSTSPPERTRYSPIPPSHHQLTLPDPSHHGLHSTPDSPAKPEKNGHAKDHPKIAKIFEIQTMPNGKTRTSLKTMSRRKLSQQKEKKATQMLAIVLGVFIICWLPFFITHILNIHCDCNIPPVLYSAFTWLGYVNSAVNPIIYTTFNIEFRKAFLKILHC
Sequence of 5HT-Transporter (P31645 whole entry): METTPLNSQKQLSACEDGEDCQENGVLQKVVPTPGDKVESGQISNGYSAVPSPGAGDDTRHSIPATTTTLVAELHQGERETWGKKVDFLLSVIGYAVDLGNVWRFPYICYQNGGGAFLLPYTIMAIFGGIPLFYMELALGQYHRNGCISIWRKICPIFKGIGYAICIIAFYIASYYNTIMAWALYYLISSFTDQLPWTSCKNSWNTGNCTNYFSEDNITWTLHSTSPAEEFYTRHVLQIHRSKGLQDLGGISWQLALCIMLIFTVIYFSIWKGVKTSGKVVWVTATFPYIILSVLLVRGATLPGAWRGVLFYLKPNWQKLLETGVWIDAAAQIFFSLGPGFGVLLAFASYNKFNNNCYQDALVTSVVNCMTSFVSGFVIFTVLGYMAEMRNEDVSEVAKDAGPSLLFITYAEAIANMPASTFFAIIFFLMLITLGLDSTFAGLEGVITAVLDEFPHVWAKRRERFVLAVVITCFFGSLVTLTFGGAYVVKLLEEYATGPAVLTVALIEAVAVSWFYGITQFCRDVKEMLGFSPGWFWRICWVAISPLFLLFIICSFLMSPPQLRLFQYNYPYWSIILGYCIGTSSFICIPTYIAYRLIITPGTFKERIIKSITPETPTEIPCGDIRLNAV
T3 sequence (Q63380 1-617): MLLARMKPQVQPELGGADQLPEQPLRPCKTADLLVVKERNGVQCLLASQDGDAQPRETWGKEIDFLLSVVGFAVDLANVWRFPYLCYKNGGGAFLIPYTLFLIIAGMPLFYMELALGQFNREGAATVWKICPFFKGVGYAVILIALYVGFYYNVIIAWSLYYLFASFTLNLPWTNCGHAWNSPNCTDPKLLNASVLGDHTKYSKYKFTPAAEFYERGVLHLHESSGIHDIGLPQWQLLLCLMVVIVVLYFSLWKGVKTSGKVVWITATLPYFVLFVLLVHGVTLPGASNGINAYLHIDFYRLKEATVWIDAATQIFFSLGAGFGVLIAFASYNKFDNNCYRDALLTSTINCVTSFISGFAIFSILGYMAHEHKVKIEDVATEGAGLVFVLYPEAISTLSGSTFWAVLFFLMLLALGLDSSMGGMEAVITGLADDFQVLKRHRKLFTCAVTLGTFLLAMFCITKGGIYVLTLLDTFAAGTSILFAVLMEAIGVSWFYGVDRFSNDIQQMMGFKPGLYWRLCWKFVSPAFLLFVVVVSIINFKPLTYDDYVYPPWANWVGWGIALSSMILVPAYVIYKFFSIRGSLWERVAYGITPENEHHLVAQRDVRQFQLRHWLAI

In general, Km refers to the concentration of substrate that gives half-maximal velocity. Consider `NCCc1c[nH]c2ccc(O)cc12` [5HT, serotonin], for which the Km on 5HT-Transporter is 0.34 µM. Besides, the Kd in test [1] was approximately 15 nM. Also, in test [2], the “decrease of maximum conductance of fast Na+, persistent Na+ and L-type Ca++ channel” value is recorded as 20%.

On to `O=c1ccc2[nH]cc(C3=CCNCC3)c2[nH]1` [CP93,129], for which the “decrease of free 5HT” value in the test with 5HT1b/d autoreceptor is recorded as 45%.

As to `CN1CCC[C@@H]1Cc1c[nH]c2ccc(Nc3ncccc3[N+](=O)[O-])cc12` [CP135,807], the “decrease of free 5HT” value with 5HT1b/d autoreceptor is reported as 45%.

As to `CCN1CCC[C@H]1CNC(=O)c1c(OC)ccc(I)c1O` [IBZM], the Kd at D2-R [3] (tracer, read-out: affinity of tracer for the D2-R) was 160 nM. Also, at D2-R [4], the “Koff” value was 0.0176 s⁻¹.

Take `Cc1nc2n(c(=O)c1CCN1CCC(c3noc4cc(F)ccc34)CC1)CCCC2O` (stereo not drawn) [Paliperidone]: at D2-R [3] (at the D2-R, read-out: Kd), the Kd was 4.1 nM.

`C[C@H](N)Cn1ccc2cc(F)c(Cl)cc21` [Ro-60-0175]: the “maximal reduction of free DA” value on 5HT2C receptor is given as 30%.

`COc1cc2nc(N3CCN(C(=O)c4ccco4)CC3)nc(N)c2cc1OC` [[^3H]prazosin, prazosin]: on alpha 1-adrenoreceptor [5], the Kd is 0.17 nM.

For `O=C1c2ccccc2CCC1CNCCc1ccc(O)c(I)c1` (stereo not drawn) [[^125I]HEAT, [^125I]iodo-2-[beta-(4-hydroxyphenyl)ethylaminomethyl]], the Kd is 3.6 nM on alpha 1-adrenoreceptor [6] (read-out: Kd (half-saturation constant), high-affinity site) and 668 nM on alpha 1-adrenoreceptor [6] (read-out: Kd, low-affinity site).

Turning to `Clc1cccc(Cl)c1N=C1NCCN1` [clonidine], the “reduction of 5HT firing (and subsequent PFC 5HT release)” value with α2 adrenergic receptors is 45%.

For the compound `CC(C)NCC(O)COc1ccccc1-n1cccc1` (stereo not drawn) [isamoltane], in the test with 5HT1b/d autoreceptor (maximal block of 5HT1b/d autoreceptor), the “increase of free 5HT” value is 50%.

As a reminder, the Ki is a dissociation constant, usually derived from enzyme kinetics or from competition with a known ligand. As to `NC[C@H](O)c1ccc(O)c(O)c1` [norepinephrine], the Ki at α2-R is 996 nM. In addition, the Km is 111 µM in [7] (read-out: Km, low-affinity component (uptake 2)) and 1.72 µM in test [7] (read-out: Michaelis constant (Km), high-affinity component (uptake 1)).

On to `COc1ccc(C(CN(C)C)C2(O)CCCCC2)cc1` (stereo not drawn) [venlafaxine], for which the “NE increase in cortex” value at NET was 498%.
